Earlier results on one molecule are cited in patent US20220370613A1, “PHARMACEUTICAL COMPOSITION” (Renown Pharma Inc., priority 2019, published 2022).

Molecules are shown by their SMILES.

Data set [1] deals with "on-off" fluctuations in Parkinson's disease. Conditions: subcutaneous injection.
Data set [2] concerns "switched on" response. The settings on record: sublingual administration.

`CN1CCc2cccc3c2[C@H]1Cc1ccc(O)c(O)c1-3` [apomorphine]: the pKa is 8.9. Moreover, in data set [1], the duration of effect is 45 to 90 min and the time to effect was 5 to 15 min. Besides, the “mean time to onset of effect” value in data set [2] was “approximately 30 minutes”.
